Assays:
[1] = target: T1, Fatty acid-binding protein, liver (Rattus norvegicus, UniProt P02692); assay: Displacement of 1-anilinonaphthalene-8-sulphonic acid from rat recombinant L-FABP high binding affinity site expressed in Escherichia coli BL21 by competitive fluorescence displacement assay
T1 sequence (P02692 whole entry): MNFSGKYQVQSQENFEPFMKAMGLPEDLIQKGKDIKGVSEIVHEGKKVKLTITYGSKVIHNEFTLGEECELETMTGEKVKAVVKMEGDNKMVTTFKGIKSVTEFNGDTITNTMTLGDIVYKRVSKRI

[2] = target: T1, Fatty acid-binding protein, liver; assay: Displacement of 1-anilinonaphthalene-8-sulphonic acid from rat recombinant L-FABP low binding affinity site expressed in Escherichia coli BL21 by competitive fluorescence displacement assay
[3] = target: T2, Fatty acid-binding protein, intestinal (Homo sapiens, UniProt P12104); assay: Displacement of 1-anilinonaphthalene-8-sulphonic acid from I-FABP
T2 sequence (P12104 whole entry): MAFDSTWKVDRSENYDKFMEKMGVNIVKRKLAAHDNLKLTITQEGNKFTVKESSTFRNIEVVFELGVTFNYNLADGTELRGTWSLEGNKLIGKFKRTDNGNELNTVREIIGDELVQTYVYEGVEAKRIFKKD

Structure (SMILES) | Ki ([1]; read-out: Ki) [µM] | Ki ([2]; read-out: Ki) [µM] | Ki [3] [µM] | Ki [1] [µM] | Ki [2] [µM]
O=C(c1ccccc1)c1ccc2n1CCC2C(=O)O (stereo not given) [KETOROLAC] | 11.6 | 119 | – | – | –
CC(C)(Oc1ccc(C(=O)c2ccc(Cl)cc2)cc1)C(=O)O [FENOFIBRIC ACID] | 0.334 | 27.5 | 1 | – | –
C[C@]12C=CC(=O)C=C1CC[C@@H]1[C@@H]2[C@@H](O)C[C@@]2(C)[C@H]1CC[C@]2(O)C(=O)CO [PREDNISOLONE] | 2.66 | 101 | – | – | –
O=C1Nc2ccc(Cl)cc2C(c2ccccc2Cl)=NC1O (stereo not given) [LORAZEPAM] | 12.9 | 140 | – | – | –
CC(C(=O)O)c1ccc(N2Cc3ccccc3C2=O)cc1 (stereo not given) [INDOPROFEN] | 1.27 | 161 | – | – | –
Cc1ccc(Cl)c(Nc2ccccc2C(=O)O)c1Cl [MECLOFENAMIC ACID] | 0.379 | 0.256 | 8.9 | – | –
CCOC(=O)C(C)(C)Oc1ccc(Cl)cc1 [CLOFIBRATE] | 6.92 | – | – | – | –
CC(C)Cc1ccc(C(C)C(=O)O)cc1 (stereo not given) [IBUPROFEN] | 47.6 | 448 | – | – | –
CC(C)(C)NCC(O)COc1cccc2c1CC(O)C(O)C2 (stereo not given) [NADOLOL] | 2310 | – | – | – | –
Cc1ccc(C)c(OCCCC(C)(C)C(=O)O)c1 [GEMFIBROZIL] | 1.86 | 179 | – | – | –
O=C(O)Cc1ccccc1Nc1c(Cl)cccc1Cl [DICLOFENAC] | 3.22 | 35.4 | – | – | –
C[C@@H]1C[C@H]2[C@@H]3CCC4=CC(=O)C=C[C@]4(C)[C@@]3(F)[C@@H](O)C[C@]2(C)[C@@]1(O)C(=O)CO [DEXAMETHASONE] | 22.1 | 41.3 | – | – | –
CC(=O)[C@H]1CC[C@H]2[C@@H]3CCC4=CC(=O)CC[C@]4(C)[C@H]3CC[C@]12C [PROGESTERONE] | 0.027 | – | 20 | – | –
CC(=O)Oc1ccccc1C(=O)O [ASPIRIN] | – | – | – | 348 | 3780
CC(C)(Oc1ccc(CCNC(=O)c2ccc(Cl)cc2)cc1)C(=O)O [BEZAFIBRATE] | – | 44.4 | 33 | – | –
CC(C)OC(=O)C(C)(C)Oc1ccc(C(=O)c2ccc(Cl)cc2)cc1 [FENOFIBRATE] | 0.024 | 0.405 | – | – | –
CC(C(=O)O)c1ccc(-c2ccccc2)c(F)c1 (stereo not given) [FLURBIPROFEN] | 1.18 | 222 | 26 | – | –
